Measured values: PubChem BioAssay AID1259407 (Chemical Carcinogenesis Research Information System (CCRIS), 2018)
The source made the active and inactive calls. How the calls were made is not given here.

Test system: CCRIS mutagenicity, Ames/micronucleus/aberration tests
Test: CCRIS mutagenicity studies
[1] = Test System: AMES SALMONELLA TYPHIMURIUM, Strain/Indicator: TA100, Metabolic Activation: NONE, Method: STANDARD PLATE
[2] = Test System: AMES SALMONELLA TYPHIMURIUM, Strain/Indicator: TA100, Metabolic Activation: HAMSTER, LIVER, S-9, AROCLOR 1254 (10%), Method: PREINCUBATION
[3] = Test System: AMES SALMONELLA TYPHIMURIUM, Strain/Indicator: TA100, Metabolic Activation: NONE, Method: PREINCUBATION
[4] = Test System: AMES SALMONELLA TYPHIMURIUM, Strain/Indicator: TA100, Metabolic Activation: RAT, LIVER, S-9, AROCLOR 1254 (10%), Method: PREINCUBATION
[5] = Test System: AMES SALMONELLA TYPHIMURIUM, Strain/Indicator: TA1535, Metabolic Activation: HAMSTER, LIVER, S-9, AROCLOR 1254 (10%), Method: PREINCUBATION
[6] = Test System: AMES SALMONELLA TYPHIMURIUM, Strain/Indicator: TA1535, Metabolic Activation: NONE, Method: PREINCUBATION
[7] = Test System: AMES SALMONELLA TYPHIMURIUM, Strain/Indicator: TA1535, Metabolic Activation: RAT, LIVER, S-9, AROCLOR 1254 (10%), Method: PREINCUBATION

C=C[Si](C)(C)N[Si](C)(C)C=C
mutagenic call (Test System: AMES SALMONELLA TYPHIMURIUM, Strain/Indicator: TA98, Metabolic Activation: HAMSTER, LIVER, S-9, AROCLOR 1254 (10%), Method: STANDARD PLATE): inactive; negative | mutagenic call (Test System: AMES SALMONELLA TYPHIMURIUM, Strain/Indicator: TA98, Metabolic Activation: NONE, Method: STANDARD PLATE): inactive; negative | mutagenic call (Test System: AMES SALMONELLA TYPHIMURIUM, Strain/Indicator: TA98, Metabolic Activation: RAT, LIVER, S-9, AROCLOR 1254 (10%), Method: STANDARD PLATE): inactive; negative | mutagenic call (Test System: AMES SALMONELLA TYPHIMURIUM, Strain/Indicator: TA100, Metabolic Activation: HAMSTER, LIVER, S-9, AROCLOR 1254 (10%), Method: STANDARD PLATE): inactive; negative | mutagenic call [1]: inactive; negative | mutagenic call (Test System: AMES SALMONELLA TYPHIMURIUM, Strain/Indicator: TA100, Metabolic Activation: RAT, LIVER, S-9, AROCLOR 1254 (10%), Method: STANDARD PLATE): inactive; negative | mutagenic call (Test System: AMES SALMONELLA TYPHIMURIUM, Strain/Indicator: TA1535, Metabolic Activation: HAMSTER, LIVER, S-9, AROCLOR 1254 (10%), Method: STANDARD PLATE): inactive; negative | mutagenic call (Test System: AMES SALMONELLA TYPHIMURIUM, Strain/Indicator: TA1535, Metabolic Activation: NONE, Method: STANDARD PLATE): inactive; negative | mutagenic call (Test System: AMES SALMONELLA TYPHIMURIUM, Strain/Indicator: TA1535, Metabolic Activation: RAT, LIVER, S-9, AROCLOR 1254 (10%), Method: STANDARD PLATE): inactive; negative | mutagenic call (Test System: AMES SALMONELLA TYPHIMURIUM, Strain/Indicator: TA1537, Metabolic Activation: HAMSTER, LIVER, S-9, AROCLOR 1254 (10%), Method: STANDARD PLATE): inactive; negative | mutagenic call (Test System: AMES SALMONELLA TYPHIMURIUM, Strain/Indicator: TA1537, Metabolic Activation: NONE, Method: STANDARD PLATE): inactive; negative | mutagenic call (Test System: AMES SALMONELLA TYPHIMURIUM, Strain/Indicator: TA1537, Metabolic Activation: RAT, LIVER, S-9, AROCLOR 1254 (10%), Method: STANDARD PLATE): inactive; negative | mutagenic call (Test System: AMES SALMONELLA TYPHIMURIUM, Strain/Indicator: TA1538, Metabolic Activation: HAMSTER, LIVER, S-9, AROCLOR 1254 (10%), Method: STANDARD PLATE): inactive; negative | mutagenic call (Test System: AMES SALMONELLA TYPHIMURIUM, Strain/Indicator: TA1538, Metabolic Activation: NONE, Method: STANDARD PLATE): inactive; negative | mutagenic call (Test System: AMES SALMONELLA TYPHIMURIUM, Strain/Indicator: TA1538, Metabolic Activation: RAT, LIVER, S-9, AROCLOR 1254 (10%), Method: STANDARD PLATE): inactive; negative | mutagenic call (Test System: MOUSE LYMPHOMA, Strain/Indicator: L5178Y (TK+/TK-), Metabolic Activation: NONE, Method: SUSPENSION/PLATE): inactive; negative. reevaluation of results: negative | mutagenic call (Test System: MOUSE LYMPHOMA, Strain/Indicator: L5178Y (TK+/TK-), Metabolic Activation: RAT, LIVER, S-9, AROCLOR 1254, Method: SUSPENSION/PLATE): inactive; negative. reevaluation of results: negative

Cc1ccc(CO)cc1
mutagenic call (Test System: AMES SALMONELLA TYPHIMURIUM, Strain/Indicator: TA97, Metabolic Activation: HAMSTER, LIVER, S-9, AROCLOR 1254 (10%), Method: PREINCUBATION): inactive; negative | mutagenic call (Test System: AMES SALMONELLA TYPHIMURIUM, Strain/Indicator: TA97, Metabolic Activation: HAMSTER, LIVER, S-9, AROCLOR 1254 (30%), Method: PREINCUBATION): inactive; negative | mutagenic call (Test System: AMES SALMONELLA TYPHIMURIUM, Strain/Indicator: TA97, Metabolic Activation: NONE, Method: PREINCUBATION): inactive; negative | mutagenic call (Test System: AMES SALMONELLA TYPHIMURIUM, Strain/Indicator: TA97, Metabolic Activation: RAT, LIVER, S-9, AROCLOR 1254 (10%), Method: PREINCUBATION): inactive; negative | mutagenic call (Test System: AMES SALMONELLA TYPHIMURIUM, Strain/Indicator: TA97, Metabolic Activation: RAT, LIVER, S-9, AROCLOR 1254 (30%), Method: PREINCUBATION): inactive; negative | mutagenic call (Test System: AMES SALMONELLA TYPHIMURIUM, Strain/Indicator: TA98, Metabolic Activation: HAMSTER, LIVER, S-9, AROCLOR 1254 (10%), Method: PREINCUBATION): inactive; negative | mutagenic call (Test System: AMES SALMONELLA TYPHIMURIUM, Strain/Indicator: TA98, Metabolic Activation: HAMSTER, LIVER, S-9, AROCLOR 1254 (30%), Method: PREINCUBATION): inactive; negative | mutagenic call (Test System: AMES SALMONELLA TYPHIMURIUM, Strain/Indicator: TA98, Metabolic Activation: NONE, Method: PREINCUBATION): inactive; negative | mutagenic call (Test System: AMES SALMONELLA TYPHIMURIUM, Strain/Indicator: TA98, Metabolic Activation: RAT, LIVER, S-9, AROCLOR 1254 (10%), Method: PREINCUBATION): inactive; negative | mutagenic call (Test System: AMES SALMONELLA TYPHIMURIUM, Strain/Indicator: TA98, Metabolic Activation: RAT, LIVER, S-9, AROCLOR 1254 (30%), Method: PREINCUBATION): inactive; negative | mutagenic call [2]: inactive; negative | mutagenic call (Test System: AMES SALMONELLA TYPHIMURIUM, Strain/Indicator: TA100, Metabolic Activation: HAMSTER, LIVER, S-9, AROCLOR 1254 (30%), Method: PREINCUBATION): inactive; negative | mutagenic call [3]: inactive; negative | mutagenic call [1]: inactive; negative | mutagenic call [4]: inactive; negative | mutagenic call (Test System: AMES SALMONELLA TYPHIMURIUM, Strain/Indicator: TA100, Metabolic Activation: RAT, LIVER, S-9, AROCLOR 1254 (30%), Method: PREINCUBATION): inactive; negative | mutagenic call [5]: inactive; negative | mutagenic call (Test System: AMES SALMONELLA TYPHIMURIUM, Strain/Indicator: TA1535, Metabolic Activation: HAMSTER, LIVER, S-9, AROCLOR 1254 (30%), Method: PREINCUBATION): inactive; negative | mutagenic call [6]: inactive; negative | mutagenic call [7]: inactive; negative | mutagenic call (Test System: AMES SALMONELLA TYPHIMURIUM, Strain/Indicator: TA1535, Metabolic Activation: RAT, LIVER, S-9, AROCLOR 1254 (30%), Method: PREINCUBATION): inactive; negative | mutagenic call (Test System: AMES SALMONELLA TYPHIMURIUM, Strain/Indicator: TA1537, Metabolic Activation: HAMSTER, LIVER, S-9, AROCLOR 1254 (30%), Method: PREINCUBATION): inactive; negative | mutagenic call (Test System: AMES SALMONELLA TYPHIMURIUM, Strain/Indicator: TA1537, Metabolic Activation: NONE, Method: PREINCUBATION): inactive; negative | mutagenic call (Test System: AMES SALMONELLA TYPHIMURIUM, Strain/Indicator: TA1537, Metabolic Activation: RAT, LIVER, S-9, AROCLOR 1254 (30%), Method: PREINCUBATION): inactive; negative

C(CCOCC1CO1)COCC1CO1 (configuration not stated)
mutagenic call [2]: active; positive | mutagenic call [3]: active; positive | mutagenic call [4]: active; positive | mutagenic call [5]: active; positive | mutagenic call [6]: active; positive | mutagenic call [7]: active; positive
